# Results: patent US20250057865A1, “ANTIVIRAL SUPPLEMENT FORMULATIONS FOR HERPESVIRUS INFECTIONS” (priority 2023, published 2025)
# What was measured:
# [1] = tested on: HSV-1 R8411; assay: microbe, parasite or virus in culture; format: cell-based, herpes simplex virus 1; conditions: for efficacy against HSV-1 (in words): ARPE-19, 24 h post-infection; for EC50: Human alphaherpesvirus 1, ARPE-19, 24 h, 24 h; for SI (CC50/EC50): Table 10, HSV1, buffered medium
# Description: (§1) Next, cells were infected at a MOI of 0.05 with either HSV-1 R8411 or HSV-2-Luc, both which expresses firefly luciferase, in either standard DMEM medium (10% FBS) or standard DMEM medium (10% FBS) buffered with 3.024 g/L sodium bicarbonate. Treatments were prepared in the different medium conditions and added at the time of infection. All assays were imaged at 24 h post-infection and/or treatment. The compounds tested for this experiment included: Test Composition in unbuffered medium, Test Composition in buffered medium, acyclovir in unbuffered medium and acyclovir in buffered medium. All graphs, EC50, CC50, and CC50/EC50 calculations were performed using GraphPad software based on Lysine equivalent concentrations.
# (§2) HSV-1 or HSV-2 infected cells were measured by bioluminescence imagining in the dose-response assay. Each plate contained a set of untreated wells in each media condition (unbuffered or buffered) to be used as baseline. Test composition concentrations ranged from 3.2 μM to 50 mM in a 1:5 dilution series. Acyclovir concentrations ranged from 0.00256 to 40 μM in a 1:5 dilution series.
# (§3) Assays were performed as previously described. […] Next, cells were infected at a MOI of approximately 0.05 with either HSV-1 R8411 or HSV-2 MS-Luciferase, both which expresses firefly luciferase, in DMEM (10% FBS) buffered with 3.024 g/L sodium bicarbonate. Antiviral compounds were prepared in the buffered media, added at the time of infection, and remained for the duration of the assay. Both HSV1 and HSV2 cultures were scanned at 24 h post-infection. Each plate contained untreated wells as a baseline for comparison. The solutions evaluated included original Test Composition and various sets of its components, as well as acyclovir (ACV; control). The table below includes a breakdown of all the different component formulations. Graphs were produced, EC50, and CC50 calculations were performed using GraphPad. Concentrations for Test Composition and its components ranged from 3.2 μM to 50 mM in a 1:5 dilution series. Acyclovir concentrations ranged from 0.00256 to 40 μM in a 1:5 dilution series.
# [2] = in vitro; format: cell-based; conditions: human, Table 10 HSV1 half, ARPE-19, buffered medium
# Description: as §3
# [3] = tested on: HSV-2-Luc; assay: microbe, parasite or virus in culture; format: cell-based, herpes simplex virus 2; conditions: for efficacy against HSV-2 (in words): ARPE-19, 24 h post-infection; for EC50: Human alphaherpesvirus 2, ARPE-19, 24 h, 24 h; for SI (CC50/EC50): Table 10, HSV2, buffered medium
# Description: as §1, §2, §3
# [4] = Cell effect in absence of virus assay, ARPE-19 cells, 72 h, Neutral Red; format: cell-based; conditions: human, ARPE-19 cells, ARPE-19, Unbuffered DMEM
# [5] = tested on: ARPE-19 cells; assay: as above; format: cell-based; conditions: ARPE-19, Buffered DMEM
# [6] = tested on: VZV-ORF57-Luc; assay: microbe, parasite or virus in culture; format: cell-based, varicella zoster virus; conditions: for EC50: Human alphaherpesvirus 3, ARPE-19, 72 h, 72 h
# Description: (§4) VZV- or HCMV-infected cells were measured by bioluminescence imagining in the efficacy or dose-response assay. Assays were performed as previously described, with a few modifications. […] Next, cells were infected at a MOI of approximately 0.05 with either VZV-ORF57-Luc or HCMV-eGFP-fLuc, both which expresses firefly luciferase, in either standard DMEM (10% FBS) or DMEM (10% FBS) buffered with 3.024 g/L sodium bicarbonate.
# (§5) Antiviral Test Compositions were prepared in the two media, added at the time of infection, and remained for the duration of the assay. VZV cultures were scanned at 72 h post-infection, and HCMV cultures were scanned at 7 days post-infection. Each plate contained untreated wells in each media condition (unbuffered or buffered) as a baseline. Test Composition in unbuffered medium, Test Composition in buffered medium, cidofovir positive control (CDV; for VZV) or ganciclovir positive control (GCV; for HCMV) in unbuffered medium, and CDV (for VZV) or GCV (for HCMV) in buffered medium. All graphs, EC50, and CC50 calculations were performed using GraphPad. Test Composition concentrations ranged from 3.2 μM to 50 mM in a 1:5 dilution series based on Lysine concentrations. Cidofovir concentrations ranged from 0.00128 to 20 μM in a 1:5 dilution series. Ganciclovir concentrations ranged from 0.0064 to 100 μM in a 1:5 dilution series.
# [7] = tested on: human foreskin fibroblasts (HFFs); conditions: Buffered DMEM, 7 d
# Description: (§6) For the cell effect in absence of virus assay, ARPE-19 cells or HFFs were seeded into 96-well plates and grown for 72 h as described above. Cells were treated with Test Composition in either unbuffered or buffered medium ranging from 1 μM to 100 mM (1:10 dilution). Cidofovir was tested in a range from 0.001 to 100 μM (1:10 dilution). Ganciclovir was tested in a range from 0.002 to 200 μM (1:10 dilution). ARPE-19 cells were treated with Test Composition or Cidofovir for 72 h, then cells were stained with Neutral Red dye and absorbance was measured at 540 nm. HFFs were treated with original Test Composition or Ganciclovir for 7 d, then cells were stained with Neutral Red dye and absorbance was measured at 540 nm.
# [8] = tested on: HCMV-eGFP-fLuc; assay: HCMV bioluminescence dose-response assay in HFFs; format: cell-based, human cytomegalovirus; conditions: unbuffered and buffered medium
# Description: as §4, §5
# [9] = in vitro; conditions: human, human foreskin fibroblasts (HFFs)
# Description: as §6
# [10] = in vivo; cited from earlier work
# [11] = adults; cited from earlier work
smiles,measurement,setting,value
"Nc1nc2c(ncn2COCCO)c(=O)[nH]1 [Acyclovir, acyclovir]",efficacy against HSV-1 (in words),[1],worked
same,efficacy against HSV-1 (in words),[1]; listed as acyclovir,effective
same,EC50,"[1]; HSV-1, ARPE-19, Buffered DMEM (sodium bicarbonate)",0.156 µM
same,EC50,"[1]; HSV-1, ARPE-19, Unbuffered DMEM, Lysine equivalent concentration",0.645 µM
same,EC50,"[1]; Table 10, HSV1, ARPE-19, buffered medium, curves plotted as L-lysine HCl or acyclovir concentration (uM), FIG. 5",0.225 µM
same,SI (CC50/EC50),[1],444.44
same,CC50 at 24 h,[2],≥ 100 µM
same,efficacy against HSV-2 (in words),[3],worked
same,efficacy against HSV-2 (in words),[3]; listed as acyclovir,effective
same,EC50,"[3]; HSV-2, ARPE-19, Buffered DMEM",6.66 µM
same,EC50,"[3]; HSV-2, ARPE-19, Unbuffered DMEM",7.89 µM
same,EC50,"[3]; Table 10, HSV2, ARPE-19, buffered medium, curves plotted as L-lysine HCl or acyclovir concentration (uM), FIG. 6",33.1 µM
same,SI (CC50/EC50),[3],3.02
"Nc1ccn(C[C@@H](CO)OCP(=O)(O)O)c(=O)n1 [Cidofovir, cidofovir]",CC50 at 72 h,[4],> 100 µM
same,CC50,[5],> 100 µM
same,efficacy against VZV (in words),"[6]; ARPE-19, unbuffered and buffered medium",effective
same,EC50,"[6]; VZV, ARPE-19, Buffered DMEM",19 µM
same,EC50,"[6]; VZV, ARPE-19, Unbuffered DMEM",1.72 µM
same,increase of EC50 in buffered medium versus unbuffered medium,[6]; VZV,10 fold
same,SI (CC50/EC50),"[6]; VZV, Buffered DMEM",5.3
same,SI (CC50/EC50),"[6]; VZV, Unbuffered DMEM",58.2
"Nc1nc(O)c2ncn(COC(CO)CO)c2n1 [Ganciclovir, ganciclovir]",CC50,[7],> 200 µM
same,efficacy against HCMV (in words),[8],not effective
same,CC50 at 7 d,[9],> 200 µM
"Cl.NCCCC[C@H](N)C(=O)O [Solution 2, L-lysine monohydrochloride]",rank of efficacy among test solutions 1-11 against HSV1,"[1]; ARPE-19, buffered medium",least effective
same,SI (CC50/EC50),[1],5
same,rank of efficacy among test solutions 1-11 against HSV2,"[3]; ARPE-19, buffered medium",least effective
same,SI (CC50/EC50),[3],2.5
CC(C)[C@H](N)C(=O)OCCOCn1cnc2c(=O)[nH]c(N)nc21 [Valacyclovir],fraction eliminated renally,[10],89%
"Cc1ncc(CO)c(CO)c1O [Vitamin B6, Pyridoxine]",intake usually safe,[11],up to 200 mg per day
